This assay concerns hypothalamic proteins. The experiment in a line: Hypothalamic proteome analysis after i.c.v. injection. It is filed as in vivo, rat. How it is done: Alpha-MSH and desacetyl-α-MSH both couple melanocortin receptors to either adenylyl cyclase or calcium-signalling pathways in vitro. To characterise the signal transduction pathways engaged by α-MSH and desacetyl-α-MSH in vivo, rats received an intracerebroventricular (i.c.v.) injection of either phosphate buffered saline (PBS), α-MSH or desacetyl-α-MSH. Three hours later, food intake was measured and hypothalamic tissues were collected for 2D gel electrophoresis-based proteome analysis.
Adult male Wistar rats (50-60 days old, 230-260 g at the beginning of the experiment) were maintained in individual cages under controlled temperature (23° C.) and reverse lighting (1000-2200 lights off). Standard laboratory chow (NZ Stockfeed Ltd) and tap water were available ad libitum during the adaptation phase. During this time animals were handled daily to minimize the effects of stress on food intake during experiments. Body weight was measured daily before, and one week after cannulation. Any animal showing signs of illness, such as weight loss, poor grooming, or decreased activity, was removed from the study. All animal procedures undertaken were approved by the Animal Ethics Committee of the University of Auckland.
After 7 days of adaptation, animals were subject to cannula placement surgery under 3% halothane/O2 anaesthesia. A permanent lateral ventricle infusion cannula (6-mm 21 gauge) was placed on top of the dura at 7.5 mm anterior from stereotaxic zero, 1.5 mm to the right of the mid-sagittal line, and secured to the skull with dental cement. Animals were allowed at least 7 days to recover from surgery before injections.
Rats were fasted overnight before the day of experiment.
Under 3% halothane/O2 anaethesia rats were infused icv through a 12-mm 27-gauge needle, connected to 20-cm length tubing attached to a syringe. Infusions were performed in the early dark phase between 1000 and 1130 hr using motor driven infusion pumps at a rate of 1.0 μl/min over 10 min. Movement of a 0.2 ml air-space introduced between the 0.9% saline solution filling the PE10 tubing-syringe system and the test solution served as an indicator of a successful infusion. At the end of each experiment animals were euthanised by pentobarbital overdose, and cannula placement was confirmed by visual inspection of the cannula tip location within the brain ventricular system.
Only one of these proteins was common to α-MSH and desacetyl-α-MSH. A combination of Reverse-phase HPLC followed by Edman protein sequencing, and peptide mass fingerprinting technique using MALDI-TOF mass spectrometry were used to identify the proteins of interest. The proteomic data provide a snap-shot of the protein expression patterns in the hypothalamus 3 hours post i.c.v. administration of the melanocortin peptides.

Setting [1] is: hypothalamus, 3 h after i.c.v. injection, rats.

On to “SYSMEHFRWGKPV [desacetyl-α-MSH, non-acetylated form of α-MSH, obtained from Bachem]”, for which, under “3 hours post i.c.v., p<0.05”, the “number of hypothalamic proteins with expression significantly different from PBS” value was found to be 20. Under setting [1], the “Cu/Zn superoxide dismutase (p1347), effect compared to control” value is on record as 1.4 fold decrease; the “Protein disulfide isomerase (p261), effect compared to control” value is listed as 1.4 fold decrease; the “gamma-enolase (p1438), effect compared to control” value was 1.7 fold decrease; the “glyceraldehyde-3-phosphate-dehydrogenase (p1210), effect compared to control” value came out at 1.4 fold decrease. Besides, under setting [1], the “phosphatidylethanolamine binding protein (p1267), effect compared to control” value is given as 2.5 fold decrease and the “triosephosphate isomerase (p1521), effect compared to control” value was found to be 1.4 fold decrease.

These data come from patent publication US20090118194A1, “Measurement of melanocortin peptides and uses thereof” (Auckland UniServices Limited, priority 2002, published 2009).
